The text below walks through data of publication PMC6383986, “Fragment-Based Covalent Ligand Screening Enables Rapid Discovery of Inhibitors for the RBR E3 Ubiquitin Ligase HOIP” (Journal of the American Chemical Society, 2019).

Assay in all cases: ABPP quantitative MS, HEK293T
Common to all, as to type: cell-based
Holding throughout (settings): 30 μM (11a) 7 h vs DMSO, then 3 μM (15) 2 h

One assay addresses T1, ALDH6A1 (Homo sapiens, UniProt Q02252).
T1 construct: endogenous in cells; host or cells: HEK293T (A21); MCF7 (A27)
On the procedure: (§1) control and cells treated with control compounds (11i) and (17) at 30 µM). HOIP RBR wild type […]
(§2) nm, indicating low to no labelling by (11a), and a dominant signal from the 800 channel (green).
(§3) C = HOIP RBR control (0.5 µg).
(§4) 5.2 Activity-based protein profiling – Enrichment and LC-MS
(§5) Cell culture and transfection, compound treatment, ha rvest and lysis
(§6) HEK293T cells were cultured and transfected as describ ed in section 4.8 above. MCF7 cells were seeded in 100 mm Petri dishes at 6 × 10^5 cells/dish and cultured overnight at 37 °C as described in section 4.8 above. Both cell types were treated with inhibitor (11a) (30 µM final concentration) or DMSO as described above, incubating for 7 h at 37 °C, followed by addition of clickable probe (15) (3 µM final concentration) and incubation for an additional 2 h. The cells were then harvested and lysed (50 mM Tris-HCl, pH 7.5, 1.5 mM MgCl2, 150 mM NaCl, 5% glycerol, 0.8% v/v IGEPAL-CA630, 25 mM NaF, 1 mM Na3VO4, complete protease inhibitor), and the protein concentration was determined by the BCA assay as described in section 4.7 above.
(§7) Enrichment of TCO-labelled proteins
(§8) Similar to a previously described protocol,22 tetrazine beads were generated by incubating high capacity neutravidin beads (500 µL; Thermo Scientific) with 0.1 µmol tetrazine-PEG4-biotin (Jena Bioscience) in PBS buffer over night at 4 °C, followed by blocking with 5 µL 100 mM biotin in DMSO for 30 minutes at 4 °C. The beads were washed 3× with buffer (50 mM Tris-HCl pH 7.4, 5% glycerol, 1.5 mM MgCl2, 150 mM NaCl, 1 mM Na3VO3, 5 mM NaF) supplemented with 0.4% IGEPAL CA-630 and adjusted to a 5% v/v slurry.
(§9) Lysate with a protein concentration of approx. 2 mg/mL (500 µL) were added to the TCO beads (35 µL) on a 96-well filter plate (Porvair, Dunn #240002) and incubated at 4°C for 2 h. After incubation, beads were washed using a vacuum manifold with 5 mL wash buffer 1 (WB1) (50 mM […]
(§10) (50 mM HEPES pH 8.5, 2 M urea), and 5 mL WB4 (50 mM HEPES pH 8.5). Proteins were then eluted by on bead digestion: 60 µL elution buffer (50 mM HEPES pH 8.5, 5 mM Tris-(2-carboxyethyl)phosphine, 15 mM chloroacetamide, 0.004 µg LysC/ µL (Wako chemicals), 0.004 µg trypsin/µL (Promega)) were added to the washed beads and incubated over night at room temperature. Eluates were collected by centrifugation, beads incubated with an additional 60 µL WB4, eluted and both eluates were combined and lyophilized. […]
(§11) proportional to the number of ions; this measure is referred to as ion area.24 Spectra matching to peptides were filtered according to the following criteria: mascot ion score >15, signal-to-background of the precursor ion >4, and signal -to-interference >0.5. Fold-changes were corrected for isotope purity and adjusted for interference caused by co-eluting nearly isobaric peaks.25 Protein quantification was derived from individual spectra matching to distinct peptides by using a sum-based bootstrap algorithm; 95% confidence intervals were calculated for all protein fold-changes that were quantified with more than three spectra.23 Relative protein abundance s were generated on the basis of MS1 abundances .26 Briefly, XIC peaks were matched to identified peptides. […] These values were then summed, and the mean was calculated.
(§12) In cases where fewer than 3 sequences were associated, the mean was calculated using XIC intensities from either one or two sequences.
(§13) Proteins were filtered for >1 quantified spectra matches (qusm). Residual binding was calculated […]

Assay [1] has as its target T2, IRAK4 (Interleukin-1 receptor-associated kinase 4) (Homo sapiens, UniProt Q9NWZ3).
T2 construct: endogenous in cells; host or cells: HEK293T (transfected with 3×FLAG HOIP RBR only)
How it is done: as §1, §2, §3, §4, §5, §6, §7, §8, §9, §10, §11, §12, §13

The target in a further assay is T3, NUDT8 (Homo sapiens, UniProt Q8WV74).
T3 construct: endogenous in cells; host or cells: HEK293T
T3 sequence (Q8WV74 whole entry): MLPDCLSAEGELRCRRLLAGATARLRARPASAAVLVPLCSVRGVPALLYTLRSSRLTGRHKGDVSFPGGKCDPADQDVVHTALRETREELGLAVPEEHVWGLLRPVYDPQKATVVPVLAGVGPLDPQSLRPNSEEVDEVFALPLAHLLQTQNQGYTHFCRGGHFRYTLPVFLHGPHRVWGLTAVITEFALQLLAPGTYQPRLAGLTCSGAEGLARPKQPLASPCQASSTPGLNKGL
On the procedure:
as §1, §2, §3, §4, §5, §6, §7, §8, §9, §10, §11, §12, §13

Assay [2] concerns the target T4, RNF31 (E3 ubiquitin-protein ligase RNF31) (Homo sapiens, UniProt Q96EP0).
T4 construct: expressed in transfected cells; host or cells: HEK293T, transient, modified pcDNA3.1(+)
How it is done:
as §1, §2, §3, §4, §5, §6, §7, §8, §9, §10, §11, §12, §13

A further assay concerns the target T5, TRMT61A (Homo sapiens, UniProt Q96FX7).
T5 construct: endogenous in cells; host or cells: HEK293T
On the procedure: as §1, §2, §3, §4, §5, §6, §7, §8, §9, §10, §11, §12, §13

T1 sequence (Q02252 34-535): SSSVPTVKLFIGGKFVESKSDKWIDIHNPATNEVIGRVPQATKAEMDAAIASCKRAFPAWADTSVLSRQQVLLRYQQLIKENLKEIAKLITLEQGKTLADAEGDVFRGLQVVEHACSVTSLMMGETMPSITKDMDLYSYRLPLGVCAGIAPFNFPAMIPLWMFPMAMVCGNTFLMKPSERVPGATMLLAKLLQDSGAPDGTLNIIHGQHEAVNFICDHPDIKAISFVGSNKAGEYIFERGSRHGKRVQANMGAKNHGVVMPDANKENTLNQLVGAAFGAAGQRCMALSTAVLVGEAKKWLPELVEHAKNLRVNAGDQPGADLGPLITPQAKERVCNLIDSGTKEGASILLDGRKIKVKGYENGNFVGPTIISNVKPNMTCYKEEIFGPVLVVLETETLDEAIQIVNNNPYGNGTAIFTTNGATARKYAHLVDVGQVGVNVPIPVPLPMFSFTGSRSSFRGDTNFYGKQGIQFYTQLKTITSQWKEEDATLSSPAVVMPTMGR
T2 sequence (Q9NWZ3 whole entry): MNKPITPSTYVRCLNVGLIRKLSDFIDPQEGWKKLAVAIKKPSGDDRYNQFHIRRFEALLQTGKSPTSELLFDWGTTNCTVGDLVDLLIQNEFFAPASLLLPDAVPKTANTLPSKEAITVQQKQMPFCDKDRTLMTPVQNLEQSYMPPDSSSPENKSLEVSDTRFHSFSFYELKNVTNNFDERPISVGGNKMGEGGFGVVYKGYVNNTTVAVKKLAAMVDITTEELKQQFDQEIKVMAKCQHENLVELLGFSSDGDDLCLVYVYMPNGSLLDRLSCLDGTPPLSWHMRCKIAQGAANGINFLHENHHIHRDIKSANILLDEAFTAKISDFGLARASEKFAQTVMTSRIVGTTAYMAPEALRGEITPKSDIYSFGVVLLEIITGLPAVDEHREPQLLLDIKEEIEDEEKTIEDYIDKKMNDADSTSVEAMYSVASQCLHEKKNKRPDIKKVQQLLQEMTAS
T5 sequence (Q96FX7 whole entry): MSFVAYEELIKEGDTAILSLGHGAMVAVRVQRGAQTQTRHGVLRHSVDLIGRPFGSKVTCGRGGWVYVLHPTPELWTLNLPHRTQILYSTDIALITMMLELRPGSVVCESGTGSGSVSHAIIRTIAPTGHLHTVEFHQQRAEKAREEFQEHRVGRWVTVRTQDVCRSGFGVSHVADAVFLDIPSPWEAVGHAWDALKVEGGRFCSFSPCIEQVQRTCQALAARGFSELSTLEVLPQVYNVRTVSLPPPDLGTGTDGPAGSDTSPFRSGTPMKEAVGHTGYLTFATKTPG
T4 sequence (Q96EP0 697-1072): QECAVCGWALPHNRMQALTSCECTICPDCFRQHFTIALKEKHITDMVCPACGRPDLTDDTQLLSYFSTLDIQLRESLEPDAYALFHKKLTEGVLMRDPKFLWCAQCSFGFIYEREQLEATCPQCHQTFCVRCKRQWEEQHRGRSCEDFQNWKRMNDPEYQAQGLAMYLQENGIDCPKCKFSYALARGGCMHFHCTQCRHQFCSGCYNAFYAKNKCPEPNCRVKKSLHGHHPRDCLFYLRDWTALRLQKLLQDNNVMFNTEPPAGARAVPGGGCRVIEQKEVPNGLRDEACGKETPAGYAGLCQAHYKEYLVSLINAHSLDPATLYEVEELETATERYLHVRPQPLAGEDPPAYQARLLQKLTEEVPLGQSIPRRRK

Turning to `COC(=O)/C=C/CNC(=O)c1cc2c([nH]c1=O)CCCC2` [Compound 11a], on ALDH6A1, the “ratio: mean ratio between control and competition samples, ALDH6A1” value is on record as -1.278 log2. Moreover, in assay [1], the “ratio: mean ratio between control and competition samples, IRAK4” value is -1.675 log2. The “ratio: mean ratio between control and competition samples, NUDT8” value on NUDT8 is -1.172 log2. Also, in assay [2], the “ratio: mean ratio between control and competition samples, RNF31” value was -2.293 log2. The “ratio: mean ratio between control and competition samples, TRMT61A” value on TRMT61A is -1.293 log2.
